System: Huh7 cells that stably maintain a subgenomic HCV replicon (S22.3 cell-line)
Experiment: Cell based HCV RNA replication assay (S22.3 replicon cells, real-time RT-PCR)
Details: Hepatitis C virus, Huh-7, 72 hours
Procedure: Huh7 cells that stably maintain a subgenomic HCV replicon were established as previously described (Lohman et al., 1999. Science 285: 110-113) and designated as the S22.3 cell-line. S22.3 cells were maintained in Dulbecco's Modified […] Medium (DMEM) supplemented with 10% FBS and 0.5 mg/mL neomycin (Standard Medium). During the assay, DMEM medium supplemented with 10% FBS, containing 0.5% DMSO and lacking neomycin was used (Assay Medium). 16 hours prior to compound addition, S22.3 cells are trypsinized and diluted to 100 000 cells/ml in Standard Medium. 100μL (10 000 cells) are distributed into each well of a 96-well plate. The plate was then incubated at 37° C. with 5% CO2 until the next day.
10 μL of test compound (in 100% DMSO) was added to 2 ml of Assay Medium for a final DMSO concentration of 0.5% and the solution was sonicated for 15 min and filtered through a […] Millipore Filter Unit. 900 μl was transferred into row A of a Polypropylene Deep-Well Titer Plate. Rows B to H, contain 400 μL aliquots of Assay Medium (containing 0.5% DMSO), and were used to prepare serial dilutions (1/2) by transferring 400 μl from row to row (no compound was included in row H).
Cell culture medium was aspirated from the 96-well plate containing the S22.3 cells. 175 μL of assay medium with the appropriate dilution of test compound was transferred from each well of the compound plate to the corresponding well of the cell culture plate (row H was used as the “No inhibition control”). The cell culture plate was incubated at 37° C. with 5% CO2 for 72 hours.
Following the 72 hour incubation period, the total cellular RNA was extracted from the S22.3 cells of the 96-well plate using the RNeasy 96 kit (Qiagen®, RNeasy Handbook. 1999.). Briefly, assay medium was completely removed from cells and 100 μL of RLT buffer (Qiagen®) containing 143 mM β-mercaptoethanol was added to each well of the 96-well cell-culture plate. The microplate was gently shaken for 20 sec. 100 μL of 70% ethanol was then added to each microplate well, and mixed by pipetting. The lysate was removed and applied to the wells of a RNeasy 96 (Qiagen®) plate that was placed on top of a Qiagen® Square-Well Block. The RNeasy 96 plate was sealed with tape and the Square-Well Block with the RNeasy 96 plate was loaded into the holder and placed in a rotor bucket of a 4K15C centrifuge. The sample was centrifuged at 6000 rpm (˜5600×g) for 4 min at room temperature. The tape was removed from the plate and 0.8 ml of Buffer RW1 (Qiagen® RNeasy 96 kit) was added to each well of the RNeasy 96 plate. The RNeasy 96 plate was sealed with a new piece of tape and centrifuged at 6000 rpm for 4 min at room temperature. The RNeasy 96 plate was placed on top of another clean Square-Well Block, the tape removed and 0.8 ml of Buffer RPE (Qiagen® RNeasy 96 kit) was added to each well of the RNeasy 96 plate. The RNeasy 96 plate was sealed with a new piece of tape and centrifuged at 6000 rpm for 4 min at room temperature. The tape was removed and another 0.8 ml of Buffer RPE (Qiagen® RNeasy 96 kit) was added to each well of the RNeasy 96 plate. The RNeasy 96 plate was sealed with a new piece of tape and centrifuged at 6000 rpm for 10 min at room temperature. Tape was removed, the RNeasy 96 plate was placed on top of a rack containing 1.2-mL collection microtubes. The RNA was eluted by adding 50 μL of RNase-free water to each well, sealing plate with a new piece of tape and incubated for 1 min at room temperature. The plate was then centrifuged at 6000 rpm for 4 min at room temperature. The elution step was repeated with a second volume of 50 μl RNase-free water. The microtubes with total cellular RNA are stored at −70° C.
RNA was quantified on the STORM® system (Molecular Dynamics®) using the RiboGreen® RNA Quantification Kit (Molecular Probes®). Briefly, the RiboGreen reagent was diluted 200-fold in TE (10 mM Tris-HCl pH=7.5, 1 mM EDTA). Generally, 50 μL of reagent was diluted in 10 mL TE. […]

Structure (SMILES)	EC50 [µM]
O=C(O)/C=C/c1ccc(NC(=O)C2(NC(=O)c3ccc4c(c3)nc(-c3ccoc3)n4C3CCCCC3)CCC2)cc1 [compound 1094]	≤ 5
O=C(O)/C=C/c1ccc(NC(=O)C2(NC(=O)c3ccc4c(c3)nc(-c3ccoc3)n4C3CCCCC3)CCCC2)cc1 [compound 1071]	≤ 5
CC(NC(=O)c1ccc2c(c1)nc(-c1ccoc1)n2C1CCCCC1)C(=O)Nc1ccc(/C=C/C(=O)O)cc1 (stereo not drawn) [compound 1054]	5 to 50
CC1CCCC(C)C1n1c(-c2cccs2)nc2cc(C(=O)NC3(C(=O)Nc4ccc(C=CC(=O)O)cc4)CCCC3)ccc21 (mixture of isomers) [compound 2035]	≤ 5
CCn1c(C(=O)O)cc2cc(NC(=O)C3(NC(=O)c4ccc5c(c4)nc(-c4ccoc4)n5C4CCCCC4)CCCC3)ccc21 [compound 1085]	≤ 5
CC(C)(NC(=O)c1ccc2c(c1)nc(-c1ccoc1)n2C1CCCCC1)C(=O)Nc1ccc(/C=C/C(=O)O)cc1 [compound 1093]	≤ 5
O=C(NC1(C(=O)Nc2ccc(-c3ccc(C(=O)O)o3)cc2)CCCC1)c1ccc2c(c1)nc(-c1ccoc1)n2C1CCCCC1 [compound 1080]	≤ 5
O=C(NC1(C(=O)Nc2ccc3[nH]c(C(=O)O)cc3c2)CCCC1)c1ccc2c(c1)nc(-c1ccoc1)n2C1CCCCC1 [compound 1098]	5 to 50
O=C(O)/C=C/c1ccc(NC(=O)C2(NC(=O)c3ccc4c(c3)nc(-c3ccccc3)n4C3CCCCC3)CCCC2)cc1 [compound 2006]	≤ 5
